In ChEMBL document CHEMBL3994586, “Treatment of estrogen-dependent diseases: Design, synthesis and profiling of a selective 17β-HSD1 inhibitor with sub-nanomolar IC50 for a proof-of-principle study” (Eur J Med Chem, 2017):

Key:
[1] = target: T1, Estrogen receptor alpha (ERalpha) (Homo sapiens, UniProt P03372); assay: Displacement of [3H]E2 from human recombinant ERalpha assessed as receptor binding at 3 uM after 16 to 20 hrs by liquid scintillation counting method relative to control; conditions: probe [3H]E2, read-out: Activity
T1 sequence (P03372 whole entry): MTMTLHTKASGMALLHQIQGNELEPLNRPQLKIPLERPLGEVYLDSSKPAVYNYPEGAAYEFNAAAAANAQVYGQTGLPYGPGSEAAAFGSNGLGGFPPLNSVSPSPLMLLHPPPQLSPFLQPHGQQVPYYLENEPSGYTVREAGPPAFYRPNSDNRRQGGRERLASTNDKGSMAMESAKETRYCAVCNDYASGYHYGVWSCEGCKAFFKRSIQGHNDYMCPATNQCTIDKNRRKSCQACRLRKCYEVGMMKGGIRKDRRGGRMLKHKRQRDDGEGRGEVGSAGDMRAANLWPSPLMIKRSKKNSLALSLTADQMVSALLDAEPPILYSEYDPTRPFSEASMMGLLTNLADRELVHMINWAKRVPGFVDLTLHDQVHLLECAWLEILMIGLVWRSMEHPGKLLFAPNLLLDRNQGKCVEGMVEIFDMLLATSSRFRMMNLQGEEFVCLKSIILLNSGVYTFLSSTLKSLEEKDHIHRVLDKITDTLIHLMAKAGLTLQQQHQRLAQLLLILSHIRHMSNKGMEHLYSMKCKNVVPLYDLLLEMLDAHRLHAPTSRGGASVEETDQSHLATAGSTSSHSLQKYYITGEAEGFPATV

[2] = target: Estrogen receptor beta (ERbeta) (Homo sapiens, UniProt Q92731); assay: Displacement of [3H]E2 from human recombinant ERbeta assessed as receptor binding at 10 uM after 16 to 20 hrs by liquid scintillation counting method relative to control; conditions: probe [3H]E2, read-out: Activity
[3] = target: T2, 17-beta-hydroxysteroid dehydrogenase type 1 (Homo sapiens, UniProt P14061); assay: Inhibition of human placental cytosolic 17beta-HSD1 assessed as reduction in activation of [2,4,6,7-3H]-E1 substrate to E2 after 10 mins in presence of NADH by RP-HPLC method
T2 sequence (P14061 whole entry): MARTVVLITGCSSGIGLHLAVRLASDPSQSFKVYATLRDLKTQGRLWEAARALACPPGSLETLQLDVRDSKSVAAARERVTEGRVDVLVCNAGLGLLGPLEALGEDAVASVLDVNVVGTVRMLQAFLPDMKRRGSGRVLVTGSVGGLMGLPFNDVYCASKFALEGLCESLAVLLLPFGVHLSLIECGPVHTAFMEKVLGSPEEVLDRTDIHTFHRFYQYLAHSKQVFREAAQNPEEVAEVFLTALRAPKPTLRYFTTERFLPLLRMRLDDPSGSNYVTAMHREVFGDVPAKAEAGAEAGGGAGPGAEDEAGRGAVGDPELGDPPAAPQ

[4] = target: T3, 17-beta-hydroxysteroid dehydrogenase type 2 (Homo sapiens, UniProt P37059); assay: Inhibition of human placental microsomal 17beta-HSD2 using [2,4,6,7-3H]-E2 as substrate after 20 mins in presence of NAD+ by RP-HPLC method
T3 sequence (P37059 whole entry): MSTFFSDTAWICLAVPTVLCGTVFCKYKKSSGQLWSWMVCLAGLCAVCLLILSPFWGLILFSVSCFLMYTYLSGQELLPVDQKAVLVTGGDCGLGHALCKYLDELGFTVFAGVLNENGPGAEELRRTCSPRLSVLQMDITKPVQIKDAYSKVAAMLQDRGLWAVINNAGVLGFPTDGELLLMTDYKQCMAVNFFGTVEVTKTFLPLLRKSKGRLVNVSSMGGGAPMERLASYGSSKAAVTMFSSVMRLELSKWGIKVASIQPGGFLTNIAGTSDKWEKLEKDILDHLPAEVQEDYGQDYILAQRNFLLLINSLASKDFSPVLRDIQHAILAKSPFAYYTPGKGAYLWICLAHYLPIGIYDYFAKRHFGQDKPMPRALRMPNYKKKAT

HEK293 = assay: Cytotoxicity against HEK293 cells assessed as reduction in cell viability up to 5.6 uM after 66 hrs by MTT assay; type: cell-based; conditions: human, hek293, 66 h
[5] = Selectivity index, ratio of IC20 for HEK293 cells to IC50 for human placental cytosolic 17beta-HSD1
Salmonella typhimurium [6] = assay: Mutagenicity in Salmonella typhimurium TA7001/7002/7003/7004/7005/7006 up to 100 uM by Ames 2 assay; type: toxicity; conditions: salmonella enterica subsp. enterica serovar typhimurium
Salmonella typhimurium [7] = assay: Mutagenicity in Salmonella typhimurium TA7001/7002/7003/7004/7005/7006 up to 100 uM in presence of rat liver S9 fraction by Ames 2 assay; type: toxicity; conditions: salmonella enterica subsp. enterica serovar typhimurium
Salmonella typhimurium [8] = assay: Mutagenicity in Salmonella typhimurium TA98 up to 100 uM by Ames 2 assay; type: toxicity; conditions: salmonella enterica subsp. enterica serovar typhimurium
Salmonella typhimurium [9] = assay: Mutagenicity in Salmonella typhimurium TA98 up to 100 uM in presence of rat liver S9 fraction by Ames 2 assay; type: toxicity; conditions: salmonella enterica subsp. enterica serovar typhimurium
PXR (NR1I2) = target: T4, PXR (NR1I2) (Homo sapiens, UniProt O75469); assay: Agonist activity at recombinant human PXR at 3.16 uM by co-factor recruitment assay relative to control; type: ADME; conditions: read-out: Activity
T4 sequence (O75469 whole entry): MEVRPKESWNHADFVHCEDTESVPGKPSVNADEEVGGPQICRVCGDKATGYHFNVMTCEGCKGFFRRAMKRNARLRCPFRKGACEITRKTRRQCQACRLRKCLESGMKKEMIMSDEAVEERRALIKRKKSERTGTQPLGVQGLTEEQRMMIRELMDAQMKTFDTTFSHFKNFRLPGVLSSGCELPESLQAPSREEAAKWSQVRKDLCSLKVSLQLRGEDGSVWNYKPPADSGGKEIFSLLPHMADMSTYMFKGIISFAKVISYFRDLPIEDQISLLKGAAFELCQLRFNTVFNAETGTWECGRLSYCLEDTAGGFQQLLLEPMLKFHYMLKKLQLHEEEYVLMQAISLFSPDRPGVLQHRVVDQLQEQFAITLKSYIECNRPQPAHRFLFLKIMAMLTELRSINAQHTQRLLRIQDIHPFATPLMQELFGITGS

CYP1A2 = target: T5, CYP1A2 (Homo sapiens, UniProt P05177); assay: Inhibition of recombinant human CYP1A2 expressed in baculovirus infected insect cell microsomes at 1 uM relative to control; type: ADME
T5 sequence (P05177 whole entry): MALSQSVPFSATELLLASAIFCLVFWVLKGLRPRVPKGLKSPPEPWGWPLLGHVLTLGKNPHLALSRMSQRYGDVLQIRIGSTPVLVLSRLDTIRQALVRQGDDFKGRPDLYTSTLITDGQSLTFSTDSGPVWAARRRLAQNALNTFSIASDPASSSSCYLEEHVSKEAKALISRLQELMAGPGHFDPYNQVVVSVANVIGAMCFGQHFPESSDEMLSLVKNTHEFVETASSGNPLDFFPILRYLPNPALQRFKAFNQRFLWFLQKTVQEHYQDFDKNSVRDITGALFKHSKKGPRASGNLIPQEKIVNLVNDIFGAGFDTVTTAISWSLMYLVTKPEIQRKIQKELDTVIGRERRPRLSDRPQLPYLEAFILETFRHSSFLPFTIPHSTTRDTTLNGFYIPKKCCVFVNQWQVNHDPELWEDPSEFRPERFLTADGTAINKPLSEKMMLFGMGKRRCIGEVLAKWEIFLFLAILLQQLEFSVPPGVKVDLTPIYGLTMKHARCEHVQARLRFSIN

CYP2B6 = target: T6, CYP2B6 (Homo sapiens, UniProt P20813); assay: Inhibition of recombinant human CYP2B6 expressed in baculovirus infected insect cell microsomes at 1 uM relative to control; type: ADME
T6 sequence (P20813 whole entry): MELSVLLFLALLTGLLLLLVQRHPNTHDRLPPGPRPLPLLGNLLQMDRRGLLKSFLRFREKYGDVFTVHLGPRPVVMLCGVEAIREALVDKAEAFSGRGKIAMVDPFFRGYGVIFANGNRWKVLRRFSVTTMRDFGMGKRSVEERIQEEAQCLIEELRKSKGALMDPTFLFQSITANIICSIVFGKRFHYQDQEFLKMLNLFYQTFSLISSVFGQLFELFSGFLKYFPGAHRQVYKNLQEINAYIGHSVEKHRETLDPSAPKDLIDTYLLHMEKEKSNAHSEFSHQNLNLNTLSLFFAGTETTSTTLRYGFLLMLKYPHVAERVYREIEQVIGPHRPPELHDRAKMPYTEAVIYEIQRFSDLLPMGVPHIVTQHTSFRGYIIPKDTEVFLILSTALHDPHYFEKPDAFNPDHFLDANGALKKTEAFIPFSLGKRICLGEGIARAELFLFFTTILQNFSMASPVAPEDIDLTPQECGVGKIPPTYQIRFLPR

CYP2C9 = CYP2C9 (Homo sapiens, UniProt P11712); assay: Inhibition of recombinant human CYP2C9 expressed in baculovirus infected insect cell microsomes at 1 uM relative to control; type: ADME
CYP2C19 = CYP2C19 (Homo sapiens, UniProt P33261); assay: Inhibition of recombinant human CYP2C19 expressed in baculovirus infected insect cell microsomes at 1 uM relative to control; type: ADME
CYP2D6 = CYP2D6 (Homo sapiens, UniProt P10635); assay: Inhibition of recombinant human CYP2D6 expressed in baculovirus infected insect cell microsomes at 1 uM relative to control; type: ADME
CYP3A4 = CYP3A4 (Homo sapiens, UniProt P08684); assay: Inhibition of recombinant human CYP3A4 expressed in baculovirus infected insect cell microsomes at 1 uM relative to control; type: ADME
Plasma [10] = assay: Plasma concentration in Sprague-Dawley rat at 150 umol/kg, sc qd for 4 consecutive days measured on day 2 post dose by HPLC-MS analysis; type: ADME, organism-based; conditions: in vivo
Plasma [11] = assay: Plasma concentration in Sprague-Dawley rat at 150 umol/kg, sc qd for 4 consecutive days measured on day 4 post dose by HPLC-MS analysis; type: ADME, organism-based; conditions: in vivo
Plasma [12] = assay: Plasma concentration in Sprague-Dawley rat at 150 umol/kg, sc qd for 4 consecutive days measured on day 8 post dose by HPLC-MS analysis; type: ADME, organism-based; conditions: in vivo

Sequence of Estrogen receptor beta (ERbeta) (Q92731 whole entry): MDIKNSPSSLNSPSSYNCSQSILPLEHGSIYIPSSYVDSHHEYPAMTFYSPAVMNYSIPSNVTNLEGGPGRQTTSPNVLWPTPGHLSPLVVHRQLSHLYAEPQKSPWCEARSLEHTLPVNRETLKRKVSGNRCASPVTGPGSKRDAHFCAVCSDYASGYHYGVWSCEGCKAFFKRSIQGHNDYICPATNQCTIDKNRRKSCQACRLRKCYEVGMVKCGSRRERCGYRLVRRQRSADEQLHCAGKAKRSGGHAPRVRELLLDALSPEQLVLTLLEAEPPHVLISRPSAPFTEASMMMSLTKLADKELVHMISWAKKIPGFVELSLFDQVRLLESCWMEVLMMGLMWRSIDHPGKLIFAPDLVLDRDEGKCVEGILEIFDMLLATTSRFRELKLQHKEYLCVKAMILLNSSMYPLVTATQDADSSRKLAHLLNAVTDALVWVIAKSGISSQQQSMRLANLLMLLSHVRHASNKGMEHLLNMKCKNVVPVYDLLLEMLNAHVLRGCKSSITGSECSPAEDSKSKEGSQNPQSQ
Sequence of CYP3A4 (P08684 whole entry): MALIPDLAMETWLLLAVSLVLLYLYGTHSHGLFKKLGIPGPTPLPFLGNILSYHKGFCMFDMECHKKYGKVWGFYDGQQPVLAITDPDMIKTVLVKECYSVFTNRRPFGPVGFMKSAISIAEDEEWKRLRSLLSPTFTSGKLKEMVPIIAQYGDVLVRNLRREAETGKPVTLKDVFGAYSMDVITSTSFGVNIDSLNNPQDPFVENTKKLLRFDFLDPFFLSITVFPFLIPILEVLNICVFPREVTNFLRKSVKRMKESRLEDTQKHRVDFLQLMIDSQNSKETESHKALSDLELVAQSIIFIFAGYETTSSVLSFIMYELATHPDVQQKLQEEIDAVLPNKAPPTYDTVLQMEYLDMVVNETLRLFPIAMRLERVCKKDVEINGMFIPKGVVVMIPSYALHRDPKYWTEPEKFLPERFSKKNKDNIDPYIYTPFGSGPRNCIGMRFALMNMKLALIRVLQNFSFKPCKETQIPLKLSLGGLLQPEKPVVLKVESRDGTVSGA
Sequence of CYP2C9 (P11712 whole entry): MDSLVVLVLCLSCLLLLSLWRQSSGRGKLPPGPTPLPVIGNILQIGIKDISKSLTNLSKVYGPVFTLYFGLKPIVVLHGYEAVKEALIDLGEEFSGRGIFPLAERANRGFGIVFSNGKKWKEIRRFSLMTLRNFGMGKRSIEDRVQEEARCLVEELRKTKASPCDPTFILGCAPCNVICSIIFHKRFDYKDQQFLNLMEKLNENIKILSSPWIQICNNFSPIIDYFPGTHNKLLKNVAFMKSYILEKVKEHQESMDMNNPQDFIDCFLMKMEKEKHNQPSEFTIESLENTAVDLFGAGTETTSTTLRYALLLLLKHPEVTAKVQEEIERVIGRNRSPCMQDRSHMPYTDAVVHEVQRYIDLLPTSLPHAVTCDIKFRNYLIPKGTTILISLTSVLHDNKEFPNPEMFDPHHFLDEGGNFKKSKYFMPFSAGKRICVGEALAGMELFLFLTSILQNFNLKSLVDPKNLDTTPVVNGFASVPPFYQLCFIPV
Sequence of CYP2D6 (P10635 whole entry): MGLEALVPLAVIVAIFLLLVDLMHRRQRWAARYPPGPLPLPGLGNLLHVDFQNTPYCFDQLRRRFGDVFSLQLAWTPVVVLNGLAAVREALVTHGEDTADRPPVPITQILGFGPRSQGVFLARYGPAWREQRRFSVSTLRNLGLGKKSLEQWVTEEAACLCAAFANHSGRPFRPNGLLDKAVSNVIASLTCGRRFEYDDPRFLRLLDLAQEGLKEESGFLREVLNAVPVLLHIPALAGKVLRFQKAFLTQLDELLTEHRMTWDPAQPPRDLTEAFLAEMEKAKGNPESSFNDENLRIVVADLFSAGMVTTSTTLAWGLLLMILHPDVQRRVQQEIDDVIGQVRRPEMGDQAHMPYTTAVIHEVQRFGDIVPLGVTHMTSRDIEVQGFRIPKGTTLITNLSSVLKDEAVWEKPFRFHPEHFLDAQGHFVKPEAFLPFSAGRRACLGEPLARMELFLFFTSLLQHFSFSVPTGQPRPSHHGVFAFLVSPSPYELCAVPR
Sequence of CYP2C19 (P33261 whole entry): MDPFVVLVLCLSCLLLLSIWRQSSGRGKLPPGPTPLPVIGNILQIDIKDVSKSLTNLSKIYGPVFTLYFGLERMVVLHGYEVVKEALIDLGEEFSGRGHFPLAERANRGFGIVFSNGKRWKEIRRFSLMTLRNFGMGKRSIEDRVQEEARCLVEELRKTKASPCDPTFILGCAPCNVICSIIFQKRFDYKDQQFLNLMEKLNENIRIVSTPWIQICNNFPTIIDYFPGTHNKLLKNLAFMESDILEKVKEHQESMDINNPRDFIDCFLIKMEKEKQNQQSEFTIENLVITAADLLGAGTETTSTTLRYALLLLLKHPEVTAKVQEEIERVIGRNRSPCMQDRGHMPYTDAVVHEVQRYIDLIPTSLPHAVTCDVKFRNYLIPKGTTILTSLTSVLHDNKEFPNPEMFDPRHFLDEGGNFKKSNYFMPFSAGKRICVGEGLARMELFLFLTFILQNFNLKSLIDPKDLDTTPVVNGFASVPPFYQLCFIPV

O=C(c1ccc(-c2ccc(O)c(Cl)c2)s1)c1c(F)ccc(O)c1F
activity at 3 µM [1]: 73%
activity at 10 µM [2]: 55%

NS(=O)(=O)c1cccc(-c2ccc(C(=O)c3c(F)ccc(O)c3F)s2)c1
IC50 [3]: 55 nM
IC50 [4]: 86 nM

O=C(c1ccc(-c2ccc(O)cc2)s1)c1c(F)ccc(O)c1F
IC50 [3]: 3 nM
IC50 [4]: 71 nM

O=C(c1ccc(-c2ccc(F)cc2F)s1)c1cccc(O)c1F
IC50 [3]: 47 nM
IC50 [4]: 55 nM

COc1ccc(-c2ccc(C(=O)c3c(F)ccc(O)c3F)s2)cc1
IC50 [3]: 18 nM
IC50 [4]: 38 nM

O=C(c1ccc(-c2cc(Cl)c(O)c(Cn3ccnn3)c2)s1)c1c(F)ccc(O)c1F
IC50 [3]: 18 nM
IC50 [4]: 26 nM

COc1c(C)cc(-c2ccc(C(=O)c3c(F)ccc(O)c3F)s2)cc1C
activity at 3 µM [1]: 51%
activity at 10 µM [2]: 69%

COc1c(Cl)cc(-c2ccc(C(=O)c3c(F)ccc(O)c3F)s2)cc1Cl
IC50 [3]: 0.5 nM
activity at 3 µM [1]: 27%
activity at 10 µM [2]: 8%
Activity (HEK293): Non-Toxic
Selectivity Index [5]: 11160
Activity (Salmonella typhimurium [6]): Non-Toxic
Activity (Salmonella typhimurium [7]): Non-Toxic
Activity (Salmonella typhimurium [8]): Non-Toxic
Activity (Salmonella typhimurium [9]): Non-Toxic
activity at 3.16 µM (PXR (NR1I2)): < 5%
inhibition at 1 µM (CYP1A2): 11%
inhibition at 1 µM (CYP2B6): 4%
inhibition at 1 µM (CYP2C9): 0%
inhibition at 1 µM (CYP2C19): 27%
inhibition at 1 µM (CYP2D6): 0%
inhibition at 1 µM (CYP3A4): 36%
concentration (Plasma [10]): 24 nM
concentration (Plasma [11]): 42 nM
concentration (Plasma [12]): 72 nM

O=C(c1cccc(O)c1)c1ccc(-c2cc(Cl)c(O)c(Cl)c2)s1
IC50 [3]: 73 nM
IC50 [4]: 540 nM

O=C(c1ccc(-c2ccccc2)s1)c1c(F)ccc(O)c1F
IC50 [3]: 11 nM
IC50 [4]: 35 nM

O=C(c1cccc(O)c1)c1ccc(-c2ccc(F)cc2F)s1
IC50 [3]: 105 to 110 nM
IC50 [4]: 140 nM

N#Cc1cc(-c2ccc(C(=O)c3c(F)ccc(O)c3F)s2)ccc1O
activity at 3 µM [1]: 44%
activity at 10 µM [2]: 6%

COc1c(Cl)cc(-c2ccc(C(=O)c3cccc(O)c3)s2)cc1Cl
IC50 [3]: 6 nM
IC50 [4]: 250 nM
activity at 3 µM [1]: 8%
activity at 10 µM [2]: 0%

O=C(c1ccc(-c2ccncc2)s1)c1c(F)ccc(O)c1F
IC50 [3]: 150 nM
IC50 [4]: 39 nM

O=C(c1ccc(-c2cc(Cl)c(O)c(Cl)c2)s1)c1c(F)ccc(O)c1F
activity at 3 µM [1]: 37%
activity at 10 µM [2]: 11%

NS(=O)(=O)c1ccc(-c2ccc(C(=O)c3c(F)ccc(O)c3F)s2)cc1
IC50 [3]: 150 nM
IC50 [4]: 85 nM

COc1ccc(-c2ccc(C(=O)c3c(F)ccc(O)c3F)s2)cc1S(=O)(=O)N1CCOCC1
IC50 [3]: 130 nM
IC50 [4]: 180 nM
activity at 3 µM [1]: 0%
activity at 10 µM [2]: 4%

Cc1cc(-c2ccc(C(=O)c3c(F)ccc(O)c3F)s2)cc(C)c1O
activity at 3 µM [1]: 17%
activity at 10 µM [2]: 22%

O=C(c1ccc(-c2cccnc2)s1)c1c(F)ccc(O)c1F
IC50 [3]: 27 nM
IC50 [4]: 47 nM

COc1c(C)cc(-c2ccc(C(=O)c3c(F)ccc(O)c3F)s2)cc1Cl
IC50 [3]: 0.3 nM
